Experimental data: patent US5344922A, “4-hydroxyquinaldic acid derivatives” (priority 1992, dated 1994)
Values joined by “and” are separate entries in the source; they are usually repeats but may differ in a detail not shown here. Identical values can stand only once. Like-named read-outs stand apart in the source and are kept apart here.

Assays:
[1] = target: T1, strychnine-insensitive glycine site associated with the NMDA receptor/channel complex (Rattus norvegicus, UniProt P35439); assay: 3H-glycine binding assay in cortical membranes; conditions: for Hill slope (nH), displacement of 3H-glycine binding: mean ± S.E.M.
T1 construct: buffy coat rat cortical membrane preparation; from tissue; host or cells: rat cerebral cortex, buffy coat membranes
Experimental: (§1) ^3 H-Glycine (^3 H-GLY), ^3 H-TCP and NMDA specific ^3 H-GLU binding assays were performed in a buffy coat rat cortical membrane preparation (Jones et al., 1989). The tissue was homogenized in a glass grinding vessel with a teflon pestle in ice-cold 0.32 M sucrose and centrifuged for 10 min at 1000×g. The resultant supernatant was decanted and recentrifuged at 20,000×g for 20 min. The pellet was resuspended in 20 volumes of ice-cold dH20 and centrifuged for 20 min at 8000×g. The supernatant and the buffy coat were then re-collected and recentrifuged at 48,000×g for 20 min. The pellet was resuspended in 20 volumes of ice-cold water and centrifuged for 20 min at 48,000×g, after which it was stored at -20° C. for not more than two weeks. On the day of the assay, the pellet was thawed, resuspended in 40 volumes of buffer, incubated at 37° C. for 20 min in the appropriate buffer, and centrifuged for 10 min at 48,000×g. The pellet was then resuspended in 40 volumes of buffer and recentrifuged at 48,000×g for 10 min. This step was repeated twice before the pellet finally resuspended in a buffer suitable for the particular binding assay. Protein concentrations were determined by the method described by Smith (1985).
C. ^3 H-Glycine Binding Assay
^3 H-glycine binding assays were initiated by addition of 100 μl aliquots of membrane homogenate (100-150 μg protein) to test tubes containing 20 nM ^3 H-glycine in the presence or absence of the test drug(s) dissolved in 50 mM Tris acetate or 50 mM Na-free HEPES buffer pH 7.5 for a final volume of 1 ml, followed by incubation for 30 min at 4° C. […] The filtration procedure and scintillation counting were performed as described above.
(§2) The Hill slopes (nH) and maximal displacement of radioligand binding were estimated by non-linear curve-fitting to a sigmoidal algorithm using the EBDA portion of the LIGAND data analysis software package for the IBM-PC (Elsevier). K1 values were obtained from the LIGAND analysis of the same data. KD and Bmax estimates were obtained by non-linear curve-fitting of the saturation isotherm using programs from the same software package (Munson and Rodbard, 1980). All data analysis was performed on each of 3-7 individual experiments performed in triplicate (7 concentrations) or duplicate (10 concentrations). Reported values are the mean ±S.E.M. of these analyses. For displacement experiments, these values were plotted with the sigmoid curve taken as the average of the sigmoidal fits of each individual experiment.

NMDA receptor = assay: Photolabeling of cortical membranes followed by SDS polyacrylamide gel electrophoresis; type: binding, rat; conditions: cortical membranes photolabeled, 366 nm; bands Rf 0.71 and 0.53
Experimental: E. Photolabeling with 7-chloro-4-hydroxy-2-quinoline carbonyl azide
(§3) Thus, in all experiments, 7-chloro-4-hydroxy-2-quinoline carbonyl azide was first dissolved at high concentrations (1-10 mM) in dimethylsulfoxide (DMSO) and then diluted in the appropriate physiological buffer. […] The appropriate DMSO control was performed at the same time, and no changes in the binding of radioligands were ever observed. This procedure, and all subsequent procedures where non-photolyzed material was desired, were performed under red light.
Previously washed rat cortical membranes were resuspended at approximately 0.1 mg protein/ml in the appropriate buffer (pH 7.4 at 23° C.), and 30 ml were placed in each of 3 or 4 150×25 mm polystyrene culture dishes on a rotating shaker. A 200 μL aliquot of a 10 mM solution of 7-chloro-4-hydroxy-2-quinoline carbonyl azide dissolved in DMSO was added and the solution was mixed for 10 min in the dark. […]
Cortical membranes were photolabeled with 7-chloro-4-hydroxy-2-quinoline as described in Example II, section E. Protein concentration of this preparation was determined using the BCA protein assay kit (Pierce, Rockford, Ill.). […]
Gels were removed and fluorescent bands visualized and recorded using a transilluminator (Fotodyne, New Berlin, Wis.) fitted with four 366nm UV bulbs (15 watts). […]

NMDA recognition site = assay: NMDA-specific 3H-L-glutamate binding assay in cortical membranes; set-up: species or system rat
Experimental: as §1, with “The pellet was then resuspended in 40 volumes of buffer and recentrifuged at 48,000×g for 10 min. This step was repeated twice before the pellet finally resuspended in a buffer suitable for the particular binding assay.” left out, “(1985). […]” for “(1985).”
For equilibrium saturation experiments, different concentrations of ^3 H-glutamate (diluted with unlabeled L-glutamate) ranging from 10 to 320 nM in the presence or absence of test drug(s) were examined. Non-specific binding was defined as that remaining in the presence of 300 μM NMDA and was determined at the lowest and the highest concentration of ^3 H-L-glutamate. […]

[2] = target: T2, NMDA receptor/channel complex (Rattus norvegicus, UniProt P35439); assay: biochemical; type: biochemical
T2 construct: buffy coat rat cortical membrane preparation; from tissue; host or cells: rat cerebral cortex, buffy coat membranes
Experimental: as §1, with “The” for “^3 H-Glycine (^3 H-GLY), ^3 H-TCP and NMDA specific ^3 H-GLU binding assays were performed in a buffy coat rat cortical membrane preparation (Jones et al., 1989). The”
D. ^3 H-TCP Binding Assay
The dissociative anesthetics ketamine and phencyclidine (PCP) selectively antagonize depolarizations produced by NMDA.
^3 H-TCP binding assays were initiated by addition of 100 μl aliquots of membrane homogenate (approximately 150 μg protein) to test tubes containing 5 nM ^3 H-TCP in the presence or absence of the test drug(s) dissolved in 10 mM HEPES buffer pH 7.5. The final volume in each tube was 1 ml, and tubes were incubated for 2 hr at 23° C. Non-specific binding was defined as that remaining in the presence of 30 μM PCP. The filtration procedure was used as described above except that the filters were presoaked for one hour in 0.03% polyethyleneimine (PEI) (Sigma) to reduce filter binding. Scintillation counting was performed as described above.
Previously washed rat cortical membranes were resuspended at approximately 0.1 mg protein/ml in the appropriate buffer (pH 7.4 at 23° C.), and 30 ml were placed in each of 3 or 4 150×25 mm polystyrene culture dishes on a rotating shaker. A 200 μL aliquot of a 10 mM solution of 7-chloro-4-hydroxy-2-quinoline carbonyl azide dissolved in DMSO was added and the solution was mixed for 10 min in the dark. Photolysis was accomplished by exposure of the reaction mixture to 366 nm long-wave ultraviolet light (Transilluminator, Fotodyne, Model 3-3000) at a distance of 5 cm for 10 min with continuous mixing.
as §2

Solubility = type: physicochemical
Experimental: as §3

glycine modulatory site = conditions: Kemp et al., 1988; cited from earlier work
[3] = target: T1, strychnine-insensitive glycine site associated with the NMDA receptor/channel complex; conditions: read-out: K1 at the glycine site (reported); Fletcher and Lodge, 1988; cited from earlier work
[4] = system: NMDA-mediated neuronal response; conditions: glycine-reversible; Fletcher and Lodge, 1988; cited from earlier work
[5] = tissue treated with 7-chloro-4-hydroxyquinaldic acid and exposed to UV light

[N-]=[N+]=NC(=O)c1cc(O)c2ccc(Cl)cc2n1 [7-chloro-4-hydroxy-2-quinoline carbonyl azide]
Ki [1]: 2.4 ± 0.2 µM | decrease in the apparent affinity for the 3H-glycine binding site on introduction of an azido group ([1]; azide relative to 7-chloro-4-hydroxyquinaldic acid): 5 fold | mode of displacement of 3H-glycine binding ([1]; rat cortical membranes, red light): apparently competitive | Hill slope (nH), displacement of 3H-glycine binding ([1]; rat cortical membranes): 0.90±0.08 | selectivity for the 3H-glycine binding site ([1]; relative to the NMDA recognition site labeled by 3H-L-glutamate): selective affinity for the ^3 H-glycine binding site relative to the NMDA recognition site | fluorescent bands on SDS polyacrylamide gel after photolabeling (NMDA receptor): two distinct fluorescent bands | Ki (NMDA recognition site; n=5, mean ± S.E.M., read-out: K1 for the NMDA site): 101 ± 12 µM | displacement of NMDA-specific 3H-L-glutamate binding (NMDA recognition site; rat cortical membranes, FIG. 2B): less than 10% | mode of inhibition of glycine action on 3H-TCP binding, non-photolyzed ([2]; non-photolyzed azide): competitive antagonism of the actions of glycine | inhibition at 10 µM ([2]; read-out: decrease of 3H-TCP binding in the absence of added glycine): 70% | mode of inhibition of glycine-enhanced 3H-TCP binding, UV irradiated ([2]; tissue UV irradiated in the presence of azide): distinctly non-competitive inhibition of glycine-enhanced ^3 H-TCP binding | solubility in polar solutions (Solubility): limited solubility

O=C(O)c1cc(O)c2ccc(Cl)cc2n1 [7-chloro-4-hydroxyquinaldic acid]
Ki [1]: 0.49 ± 0.05 µM | Hill slope (nH), displacement of 3H-glycine binding ([1]; rat cortical membranes): 0.74±0.03 | reduction of 3H-TCP binding in the absence of added glycine [2, 5]: 100% | rightward parallel shift of the glycine concentration-response curve [2, 5]: 4 fold | activity at the glycine modulatory site (glycine modulatory site): selective antagonist of the glycine modulatory site

NC1CCN(O)C1=O (stereo not drawn) [HA-966, 1-hydroxy-3-aminopyrrolidone-2]
Ki [3]: ~5 µM | effect on NMDA-mediated neuronal response [4]: reduce NMDA-mediated neuronal response in a glycine-reversible manner

NCC(=O)O [glycine]
slope of glycine concentration-response, 3H-TCP binding [2]: 1.02 and 0.93 and 1.15 | Emax ([2]; read-out: maximal increase of 3H-TCP binding by glycine): 150%
